The values below are quoted from earlier work in paper PMC2192333 (The Journal of Experimental Medicine, 1996).

The subject of one data set is C3bi. The note with it: mutation in CD11b.

Take “murine LFA-1: murine leukocyte integrin LFA-1”: the “binding of murine LFA-1 to human ICAM-1” value with human ICAM-1 is given as “does not bind human ICAM-1”.
Regarding “CD11d/CD18: recently described fourth member of the CD18 integrins”, the “binding to ICAM-3” value in the data set on ICAM-3 was “high affinity”.
In the case of “Asp-140GlySer to AlaGlyAla: mutation of the closely related integrin CD11b”, the “binding to C3bi” value in the data set on C3bi was “abohshed binding to C3bi”.
